Experiments:
Assay in all cases: MIC of carbapenems with or without DMSA
C. freundii MIG = format: cell-based; conditions: VIM-2 + TEM-1 +OXA-9 + OXA-10, no DMSA, unit assumed
Protocol: (§1) Minimum inhibitory concentrations (MICs) of carbapenems were determined in-vitro with strains (reference and clinical) producing the three main types of class B carbapenemases which are IMP, VIM and NDM, with or without EDTA and DMSA.
(§2) MICs of imipenem was determined for E. coli TOP10 pCR2.1-(PNDM-1-blaNDM-1-bleMBL) in the presence of 0, 0.01, 0.1 or 1 mg/ml of Ca-EDTA or DMSA by using the broth microdilution method in zinc-complemented M9CA minimum medium (SD7025, Euromedex, France).
(§3) A 100 mM DMSA stock solution (Sigma Aldrich, France) (pH 5.0) was prepared in 0.2 M NaOH as recommended (Maiorino et al. 1990) and pH was neutralized to pH 7.0 with NaHCO3 Na2Ca-EDTA (Sigma Aldrich, France) dissolved in water.
(§4) The strains were as follows: VIM producers (n=10), IMP producers (n=9), NDM-1 producers (n=10). The selected concentration of DMSA was 10-fold (0.3 mM) and 100-fold (3 mM) that of the human peak serum concentration after oral administration (Asiedu et al;, 1995), and that of Ca-EDTA was assayed at the fixed concentration of 0.2 mM (Table 2). […]

E. cloacae 1008029 = format: cell-based; conditions: E. cloacae 1008029, VIM-1 + CTX-M-3; no DMSA; unit assumed
Protocol: as §1, §2, §3, §4

E. cloacae 1008085 = format: cell-based; conditions: E. cloacae 1008085, IMP-1; no DMSA; unit assumed
Protocol: as §1, §2, §3, §4

E. cloacae 1008183 = format: cell-based; conditions: E. cloacae 1008183, IMP-1; no DMSA; unit assumed
Protocol: as §1, §2, §3, §4

E. cloacae 1008186 = format: cell-based; conditions: E. cloacae 1008186, IMP-1; no DMSA; unit assumed
Protocol: as §1, §2, §3, §4

E. cloacae 396715 = format: cell-based; conditions: E. cloacae 396715, VIM-1; no DMSA; unit assumed
Protocol: as §1, §2, §3, §4

E. cloacae KOW3 = format: cell-based; conditions: E. cloacae KOW3, VIM-1 + CTX-M-15+ TEM-1 + SHV-31; no DMSA; unit assumed
Protocol: as §1, §2, §3, §4

E. cloacae TAW = format: cell-based; conditions: IMP-8, no DMSA, unit assumed
Protocol: as §1, §2, §3, §4

E. coli 0404018 = format: cell-based; conditions: E. coli 0404018, VIM-1 + CMY-6; no DMSA; unit assumed
Protocol: as §1, §2, §3, §4

E. coli 1008077 = format: cell-based; conditions: E. coli 1008077, VIM-1 + TEM-3; no DMSA; unit assumed
Protocol: as §1, §2, §3, §4

E. coli 1108013 = format: cell-based; conditions: E. coli 1108013, IMP-1 + TEM-1; no DMSA; unit assumed
Protocol: as §1, §2, §3, §4

E. coli 162 = format: cell-based; conditions: E. coli 162, NDM-5 + TEM-1 +CTX-M-15; no DMSA; unit assumed
Protocol: as §1, §2, §3, §4

E. coli 405 = format: cell-based; conditions: E. coli 405, NDM-5 + TEM-1 +CTX-M-15; no DMSA; unit assumed
Protocol: as §1, §2, §3, §4

E. coli ALL = format: cell-based; conditions: NDM-1 + TEM-1 +CTX-M-15+OXA-1 + OXA-2, no DMSA, unit assumed
Protocol: as §1, §2, §3, §4

E. coli BOUN = format: cell-based; conditions: NDM-4 + OXA-1, no DMSA, unit assumed
Protocol: as §1, §2, §3, §4

E. coli COUP = format: cell-based; conditions: NDM-7 + OXA-1 +CTX-M-15, no DMSA, unit assumed
Protocol: as §1, §2, §3, §4

E. coli DIH = format: cell-based; conditions: VIM-19, no DMSA, unit assumed
Protocol: as §1, §2, §3, §4

E. coli FEK = format: cell-based; conditions: NDM-4 + NDM-4 + OXA-1 + CTX-M-15, no DMSA, unit assumed
Protocol: as §1, §2, §3, §4

E. coli IBIS = format: cell-based; conditions: VIM-4, no DMSA, unit assumed
Protocol: as §1, §2, §3, §4

E. coli IR5 = format: cell-based; conditions: E. coli IR5, NDM-1 + TEM-1 +CTX-M-15; no DMSA; unit assumed
Protocol: as §1, §2, §3, §4

E. coli JAP = format: cell-based; conditions: IMP-1, no DMSA, unit assumed
Protocol: as §1, §2, §3, §4

E. coli MAD = format: cell-based; conditions: VIM-1 + CTX-M-3, no DMSA, unit assumed
Protocol: as §1, §2, §3, §4

E. coli RIC = format: cell-based; conditions: NDM-1 + CMY-16 + OXA-1 + OXA-10, no DMSA, unit assumed
Protocol: as §1, §2, §3, §4

K.p. 0709124 = format: cell-based, K. pneumoniae; conditions: K.p. 0709124, IMP-1b + TEM-15; no DMSA; unit assumed
Protocol: as §1, §2, §3, §4

K.p. 6852 = format: cell-based, K. pneumoniae; conditions: K.p. 6852, IMP-1 + SHV-5; no DMSA; unit assumed
Protocol: as §1, §2, §3, §4

K.p. KIE = format: cell-based, K. pneumoniae; conditions: NDM-1 + SHV-38 + CMY-16 + OXA-10, no DMSA, unit assumed
Protocol: as §1, §2, §3, §4

K.p. OMA1 = format: cell-based, K. pneumoniae; conditions: K.p. OMA1, NDM-1 + TEM-1 +CTX-M-15+ SHV-28 + OXA-1 + OXA-9; no DMSA; unit assumed
Protocol: as §1, §2, §3, §4

K.p. ROUM = format: cell-based, K. pneumoniae; conditions: VIM, no DMSA, unit assumed
Protocol: as §1, §2, §3, §4

K.p. TAW = format: cell-based, K. pneumoniae; conditions: IMP-8 + SHV-5, no DMSA, unit assumed
Protocol: as §1, §2, §3, §4

`C[C@@H](O)[C@H]1C(=O)N2C(C(=O)O)=C(S[C@@H]3CN[C@H](C(=O)Nc4cccc(C(=O)O)c4)C3)[C@H](C)[C@H]12` [ETP, ertapenem] was tested, and the MIC (C. freundii MIG) was 2 µg/mL, the MIC (E. cloacae 1008029) was greater than 32 µg/mL and the MIC (E. cloacae 1008085) was 8 µg/mL. For the same compound, the MIC (E. cloacae 1008183) was 8 µg/mL, the MIC (E. cloacae 1008186) was 32 µg/mL and the MIC (E. cloacae 396715) was 2 µg/mL. For the same compound, the MIC (E. cloacae KOW3) was greater than 32 µg/mL, the MIC (E. cloacae TAW) was 4 µg/mL and the MIC (E. coli 0404018) was 4 µg/mL. It also gave an MIC (E. coli 1008077) greater than 32 µg/mL, an MIC (E. coli 1108013) of 32 µg/mL and an MIC (E. coli 162) greater than 32 µg/mL. The MIC (E. coli 405) was greater than 32 µg/mL, the MIC (E. coli ALL) was 16 µg/mL and the MIC (E. coli BOUN) was 16 µg/mL. The MIC (E. coli COUP) was 32 µg/mL, the MIC (E. coli DIH) was 8 µg/mL and the MIC (E. coli FEK) was greater than 32 µg/mL. The MIC (E. coli IBIS) was 2 µg/mL, the MIC (E. coli IR5) was 32 µg/mL and the MIC (E. coli JAP) was 0.5 µg/mL. It also gave an MIC (E. coli MAD) of 0.25 µg/mL, an MIC (E. coli RIC) of 8 µg/mL and an MIC (K.p. 0709124) of 32 µg/mL. The MIC (K.p. 6852) was greater than 32 µg/mL, the MIC (K.p. KIE) was 4 µg/mL and the MIC (K.p. OMA1) was greater than 32 µg/mL. For the same compound, the MIC (K.p. ROUM) was greater than 32 µg/mL and the MIC (K.p. TAW) was 0.5 µg/mL.

From EP2979694B1, “Dimercaptosuccinic acid for the treatment of multidrug resistant bacterial infections” (priority 2014, dated 2016)
